Measured values published in US7473822B1, “Soybean transformation and regeneration using half-seed explant” (Iowa State University Research Foundation, Inc., priority 2005, dated 2009).

Columns and labels:
[1] = tested on: Thorne soybean half-seed explants; assay: Agrobacterium-mediated transformation and regeneration of half-seed explants from seeds soaked in BAP; settings: for Initial Transformation Efficiency (ITE; %): ITE = no. of Liberty-resistant R0 events/no. of explants infected
Experimental: Mature Thorne soybean seeds were surface-sterilized for 16 hrs using chlorine gas, which was produced by mixing 3.5 ml of 12 N HCl with 100 ml of commercial bleach (5.25% sodium hypochloride) (Di et al., Plant Cell Rep. 15: 746-750 (1996)). […] The seeds were then split by cutting longitudinally along the hilums to separate the cotyledons, and the seed coats, primary shoots, and embryonic axes were removed, thereby generating half-seed explants. The half-seed explants were co-cultivated with A. tumefaciens for five days in the light. […]
About 50-100 half-seed explants were inoculated with 30 ml of Agrobacterium suspension culture in a 20×100 mm Petri dish at RT for 30 min. After inoculation, half-seed explants were transferred to co-cultivation medium lined with filter paper (6 explants per plate; flat side of explant in contact with filter paper) (see Table II). Co-cultivation was carried out for five days at 24° C. with 18 hr photoperiod at 140 μmoles sec^−1m^−2 light intensity.
(§1) After co-cultivation, the half-seed explants were washed in liquid shoot induction (SI) medium (see Table III). The explants were cultured on shoot induction medium solidified with 0.7% agar in the absence of selection. The base of the explant (i.e., the part of the explant from where the embryonic axis was removed) was embedded in the medium, facing upwards. […] Shoot induction was carried out in a Percival Biological Incubator at 24° C. with an 18-hr photoperiod at 140 μmoles sec^−1m^−2 light intensity. After 14 days, the explants were transferred to fresh shoot induction medium containing 6 mg/l glufosinate. After four weeks of culture on shoot induction medium, explants were transferred to shoot elongation (SE) medium containing 6 mg/l glufosinate (see Table IV). Two to four weeks later, elongated shoots (>2.5 cm) were dipped in sterile IBA (1 mg/l) and then transferred to rooting medium (see Table V) without glufosinate. After two weeks, agar medium was rinsed off of the rooted plantlets with water, and the rooted plantlets were transplanted to soil (Redi-Earth, Peat-Lite Mix, Scotts-Sierra Horticultural Products Company, Marysville, Ohio) in jiffy pots. The plant (R0) was grown at 24° C. with an 18-hr photoperiod for one-two weeks and then transferred to the greenhouse.
R0 plants with two trifoliates were screened using the herbicide paint assay to identify putative transformants that expressed the bar gene. The upper surface of a leaf was painted with 150 mg/l glufosinate (herbicide Liberty®, AgrEvo, U.S.A.) along the midrib using a cotton bud. Plants were scored based on the tolerance of the leaf tissue to glufosinate at three-five days after painting. Glufosinate-resistant R0 plants were grown in the greenhouse until maturity and seeds were harvested. Subsequently, seeds from R0 plants were sown and progeny-tested to confirm the presence of the transgene in the R1 generation by spraying two-week-old seedlings with 200 mg/l glufosinate. Plants were scored one week after spraying. Thirty-two transgenic events were confirmed in the R1 progeny by spraying with 200 mg/l glufosinate using herbicide Liberty. […] Plants were fertile and produced seed.
After five days of co-cultivation, half-seed explants infected with pTF102 were assayed for transient GUS blue expression to verify T-DNA transfer. The explants were incubated overnight in 5-bromo-4-chloro-3-indolyl glucuronide (X-gluc) solution at 37° C. (Jefferson et al., EMBO J 6: 3901-3907 (1987)). After staining, the explants were de-stained with 70% ethanol to improve contrast. The incidence of GUS activity was determined based on the presence of blue-staining areas. In addition, stable GUS expression was determined after 28 days on regeneration medium or on R0 plants. The transgenic nature of the soybean plants was also confirmed in the R0 or R1 generation by histochemical GUS assay.

[2] = tested on: soybean half-seed explants; assay: Shoot induction on half-seed explants with BAP added to shoot induction medium; settings: BAP 15-100 μM in shoot induction medium, compared to no treatment or 2.5-7.5 μM
Experimental: as §1

**Q.** With `c1ccc(CNc2ncnc3nc[nH]c23)cc1` [BAP, 6-benzylaminopurine] as the compound, how does the “Freq. GUS blue (on the section of explant where shoots were induced)” value ([1]; seeds soaked in 7.5 μM BAP) read?
**A.** (10%)

**Q.** And the “Freq. GUS blue (on the section of explant where shoots were induced), count” value (“Freq. GUS blue … count” for short) ([1]; seeds soaked in 7.5 μM BAP)?
**A.** 1/10

**Q.** And the “No. of Liberty-resistant R0 plants” value ([1]; seeds soaked in 7.5 μM BAP)?
**A.** 0

**Q.** And the “Reg. Freq. (%) (regeneration frequency at first shoot induction stage)” value (shortened to “Reg. Freq. (%)”) ([1]; seeds soaked in 7.5 μM BAP)?
**A.** (8) %

**Q.** What about the “Reg. Freq. (regeneration frequency at first shoot induction stage), explants count” value ([1]; seeds soaked in 7.5 μM BAP) of the same compound?
**A.** 4/50

**Q.** And the “Initial Transformation Efficiency (ITE; %)” value ([1]; seeds soaked in 7.5 μM BAP)?
**A.** 0.0%

**Q.** What about the “Freq. GUS blue (on the section of explant where shoots were induced)” value ([1]; seeds soaked in 15 μM BAP) of the same compound?
**A.** (20%)

**Q.** And the “Freq. GUS blue … count” value ([1]; seeds soaked in 15 μM BAP)?
**A.** 2/10

**Q.** What about the “No. of Liberty-resistant R0 plants” value ([1]; seeds soaked in 15 μM BAP) of the same compound?
**A.** 3

**Q.** And the “Reg. Freq. (%)” value ([1]; seeds soaked in 15 μM BAP)?
**A.** (48) %

**Q.** And the “Reg. Freq. (regeneration frequency at first shoot induction stage), explants count” value ([1]; seeds soaked in 15 μM BAP)?
**A.** 24/50

**Q.** What about the “Initial Transformation Efficiency (ITE; %)” value ([1]; seeds soaked in 15 μM BAP) of the same compound?
**A.** 6.0%

**Q.** And the “Freq. GUS blue (on the section of explant where shoots were induced)” value ([1]; seeds soaked in 30 μM BAP)?
**A.** (90%)

**Q.** And the “Freq. GUS blue … count” value ([1]; seeds soaked in 30 μM BAP)?
**A.** 9/10

**Q.** And the “No. of Liberty-resistant R0 plants” value ([1]; seeds soaked in 30 μM BAP)?
**A.** 2

**Q.** And the “Reg. Freq. (%)” value ([1]; seeds soaked in 30 μM BAP)?
**A.** (58) %

**Q.** What about the “Reg. Freq. (regeneration frequency at first shoot induction stage), explants count” value ([1]; seeds soaked in 30 μM BAP) of the same compound?
**A.** 29/50

**Q.** And the “Initial Transformation Efficiency (ITE; %)” value ([1]; seeds soaked in 30 μM BAP)?
**A.** 4.0%

**Q.** And the “Freq. GUS blue (on the section of explant where shoots were induced)” value ([1]; seeds soaked in 50 μM BAP)?
**A.** (67%)

**Q.** What about the “Freq. GUS blue … count” value ([1]; seeds soaked in 50 μM BAP) of the same compound?
**A.** 6/9

**Q.** What about the “No. of Liberty-resistant R0 plants” value ([1]; seeds soaked in 50 μM BAP) of the same compound?
**A.** 0

**Q.** What about the “Reg. Freq. (%)” value ([1]; seeds soaked in 50 μM BAP) of the same compound?
**A.** (46) %

**Q.** What about the “Reg. Freq. (regeneration frequency at first shoot induction stage), explants count” value ([1]; seeds soaked in 50 μM BAP) of the same compound?
**A.** 23/50

**Q.** And the “Initial Transformation Efficiency (ITE; %)” value ([1]; seeds soaked in 50 μM BAP)?
**A.** 0.0%

**Q.** And the “shoot formation (regeneration frequency)” value [2]?
**A.** enhanced shoot formation
